The source made the active and inactive calls. No stated cut-off is given here; in the data, actives have a measured IC50 and inactives only a lower limit.
Assays:
Format in all cases: functional
[1] = molecular target: T1, Caspase-3 (Homo sapiens, UniProt P42574); assay: inhibition of recombinant caspase-3 activity – biochemical, luminescence, set 2, selectivity assay for SENP protease inhibitor project, SAR follow-up (AID 588599)
T1 sequence (P42574 whole entry): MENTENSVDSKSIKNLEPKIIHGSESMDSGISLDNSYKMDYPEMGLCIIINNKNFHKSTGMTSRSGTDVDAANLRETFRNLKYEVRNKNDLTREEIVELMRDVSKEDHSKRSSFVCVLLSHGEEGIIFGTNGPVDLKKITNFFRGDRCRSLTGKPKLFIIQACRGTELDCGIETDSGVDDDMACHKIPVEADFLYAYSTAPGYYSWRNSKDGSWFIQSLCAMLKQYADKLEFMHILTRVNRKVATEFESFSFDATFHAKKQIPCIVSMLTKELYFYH

[2] = molecular target: T2, Sentrin-specific protease 7 (Homo sapiens, UniProt Q9BQF6); assay: inhibition of human SENP7 cleavage activity – biochemical, luminescence, set 2, SAR follow-up (AID 588600)
T2 sequence (Q9BQF6 whole entry): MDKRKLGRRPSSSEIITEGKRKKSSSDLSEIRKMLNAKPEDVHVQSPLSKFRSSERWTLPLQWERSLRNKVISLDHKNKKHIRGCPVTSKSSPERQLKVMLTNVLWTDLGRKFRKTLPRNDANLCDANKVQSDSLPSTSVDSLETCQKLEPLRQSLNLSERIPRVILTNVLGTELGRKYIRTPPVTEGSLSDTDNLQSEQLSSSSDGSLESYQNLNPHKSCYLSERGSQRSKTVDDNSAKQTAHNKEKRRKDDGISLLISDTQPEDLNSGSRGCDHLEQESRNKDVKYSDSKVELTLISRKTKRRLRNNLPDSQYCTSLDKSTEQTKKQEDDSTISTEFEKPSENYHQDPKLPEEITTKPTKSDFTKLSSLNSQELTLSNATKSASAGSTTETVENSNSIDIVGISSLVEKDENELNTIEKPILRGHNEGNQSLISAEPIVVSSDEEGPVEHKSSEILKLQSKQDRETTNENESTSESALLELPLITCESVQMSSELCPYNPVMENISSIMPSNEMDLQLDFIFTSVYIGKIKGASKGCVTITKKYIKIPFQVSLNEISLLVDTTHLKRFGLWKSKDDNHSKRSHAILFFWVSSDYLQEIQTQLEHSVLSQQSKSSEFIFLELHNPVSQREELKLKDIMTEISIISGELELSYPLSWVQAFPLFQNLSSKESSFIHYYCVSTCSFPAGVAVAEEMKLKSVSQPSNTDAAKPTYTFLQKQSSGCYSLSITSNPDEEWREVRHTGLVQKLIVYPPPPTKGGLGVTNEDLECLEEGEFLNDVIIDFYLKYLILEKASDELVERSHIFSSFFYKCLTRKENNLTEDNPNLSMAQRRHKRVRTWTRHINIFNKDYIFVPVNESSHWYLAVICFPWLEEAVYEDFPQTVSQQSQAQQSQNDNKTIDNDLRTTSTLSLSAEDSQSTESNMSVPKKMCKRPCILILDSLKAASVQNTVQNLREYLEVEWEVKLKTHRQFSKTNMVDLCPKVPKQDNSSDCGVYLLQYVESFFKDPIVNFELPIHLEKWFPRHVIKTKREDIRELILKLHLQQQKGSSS

[3] = molecular target: T3, Sentrin-specific protease 6 (Homo sapiens, UniProt Q9GZR1); assay: inhibition of human SENP6 catalytic domain – biochemical, luminescence, set 2, SAR follow-up (AID 588598)
T3 sequence (Q9GZR1 whole entry): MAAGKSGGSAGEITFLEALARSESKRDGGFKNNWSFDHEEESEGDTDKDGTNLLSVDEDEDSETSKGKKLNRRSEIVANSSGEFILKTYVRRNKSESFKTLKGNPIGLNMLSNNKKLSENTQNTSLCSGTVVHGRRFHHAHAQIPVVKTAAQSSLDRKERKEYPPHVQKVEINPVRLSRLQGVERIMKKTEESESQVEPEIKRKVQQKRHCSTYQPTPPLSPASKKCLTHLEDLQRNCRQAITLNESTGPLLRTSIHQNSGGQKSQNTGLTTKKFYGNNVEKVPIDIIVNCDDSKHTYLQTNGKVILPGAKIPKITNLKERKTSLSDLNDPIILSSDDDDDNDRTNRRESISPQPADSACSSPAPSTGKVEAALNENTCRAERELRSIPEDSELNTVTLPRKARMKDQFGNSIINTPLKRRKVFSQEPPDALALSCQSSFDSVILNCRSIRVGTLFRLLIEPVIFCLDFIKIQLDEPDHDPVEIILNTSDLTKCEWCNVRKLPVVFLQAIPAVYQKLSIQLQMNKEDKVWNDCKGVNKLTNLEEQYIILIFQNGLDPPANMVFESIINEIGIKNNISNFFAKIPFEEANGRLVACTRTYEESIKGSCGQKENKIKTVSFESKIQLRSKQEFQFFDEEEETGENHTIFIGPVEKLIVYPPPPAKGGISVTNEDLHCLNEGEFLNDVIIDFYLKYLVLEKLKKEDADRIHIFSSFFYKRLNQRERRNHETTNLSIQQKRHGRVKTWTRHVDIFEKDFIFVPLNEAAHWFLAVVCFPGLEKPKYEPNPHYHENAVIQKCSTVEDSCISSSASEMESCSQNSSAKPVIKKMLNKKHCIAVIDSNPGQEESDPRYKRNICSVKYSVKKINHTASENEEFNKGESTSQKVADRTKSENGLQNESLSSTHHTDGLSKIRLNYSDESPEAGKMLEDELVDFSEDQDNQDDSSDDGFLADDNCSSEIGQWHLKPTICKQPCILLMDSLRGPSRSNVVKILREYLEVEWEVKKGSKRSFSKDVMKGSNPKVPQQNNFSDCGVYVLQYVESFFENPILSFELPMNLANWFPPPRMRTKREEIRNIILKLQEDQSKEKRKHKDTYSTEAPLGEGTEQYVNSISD

[4] = molecular target: T4, Sentrin-specific protease 8 (Homo sapiens, UniProt Q96LD8); assay: inhibition of sentrin protease 8 – biochemical, luminescence, set 2, SAR follow-up (AID 588601)
T4 sequence (Q96LD8 whole entry): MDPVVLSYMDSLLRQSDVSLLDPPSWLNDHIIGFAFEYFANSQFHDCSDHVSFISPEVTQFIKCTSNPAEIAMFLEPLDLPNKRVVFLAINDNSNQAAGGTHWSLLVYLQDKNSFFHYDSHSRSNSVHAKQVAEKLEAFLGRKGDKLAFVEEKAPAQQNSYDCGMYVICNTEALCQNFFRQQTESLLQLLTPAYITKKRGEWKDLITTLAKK

IC50 [1]: > 99 µM (inactive) | IC50 [2]: > 99 µM (inactive) | IC50 [3]: > 99 µM (inactive)
Structure (SMILES): CCCN(CCC)S(=O)(=O)c1ccc2[nH]cc(/C=N/NC(=S)Nc3ccc(F)c(Cl)c3)c2c1
IC50 [4]: > 99 µM (inactive)
